# Reference: US20180132485A1, “USE OF HYDROXYAPATITE AS A CARRIER OF NUTRITIONAL ELEMENTS AND VEGETAL EXTRACTS FOR TREATING PLANTS” (NDG NATURAL DEVELOPMENT GROUP S.R.L., priority 2015, published 2018)
# Tested on: Agrobacterium vitis
# Assay: Inhibition of growth of Agrobacterium vitis strains on PDA plates (diameters of inhibitory zones)
# Format: cell-based
# Settings: 3% v/v; 6 strains; 28° C., 2-5 days
# Experimental: The biological efficacy of the test agents was determined in terms of inhibition of the growth. To this aim 6 strains of Agrobacterium vitis from different growing areas worldwide, were grown in vitro. The strains of A. vitis, were inoculated on Petri dishes containing PDA (Potato Dextrose Agar), in the ratio of approximately 10 to 8 cells. After plating the bacteria, 5 holes (6 mm) were drilled in the substrate (one at the center of the plate and 4 equally spaced around the central hole). Each plate was filled with 20 microliters of test substance at the concentrations indicated; for each substance and concentration, 3 replies were set up. The central hole was filled with 20 microliters of sterile water, which represented the untreated control. The plates were incubated at 28° C., for 2-5 days.
# After the expiration of the incubation period, for each tested strain and for each substance and concentration, the diameters of the inhibitory zones were considered (average of two orthogonal diameters of each inhibitory area). The collected data were subjected to analysis of variance ANOVA and comparison of averages with SNK test.
compound,measurement,value
OCl [Sodium Hypochlorite],inhibition of the growth (inhibitory zones),completely inhibited
